Measurements from patent publication US5534554A, “Sucrose ester-C20 to C28 alcohol formulations” (priority 1994, dated 1996).
“Also recorded” adds a separate entry of the source.

Columns and labels:
[1] = system: reovirus; test: Antiviral activity against reovirus; format: cell-based; settings: nonenveloped virus
[2] = system: virus; test: Direct virucidal activity; settings: n-docosanol suspension
Text: (§1) The collective implications of the results of the studies are that the compound appears to interfere with one or more of the common pathways of viral entry into the cell and migration to the nucleus of infected target cells.

[3] = system: acyclovir-resistant HSV-2; test: Plaque inhibition, acyclovir-resistant HSV-2 in Vero cells; format: cell-based; settings: FIG. 7, Panel B
[4] = system: Vero cells
[5] = system: Friend Virus; test: Replication of Friend Virus in vitro in primary embryo fibroblast cultures; format: cell-based, murine
[6] = system: Influenza A; test: Antiviral activity against influenza A; format: cell-based; settings: Table 6, human viruses
[7] = system: Herpes simplex virus type 2; test: Inhibition of HSV type 2 infectivity in simian and human cell lines; format: cell-based, HSV-2
[8] = system: LP-BM5 Virus; test: Antiviral activity against LP-BM5 virus; format: cell-based; settings: Table 6, murine viruses
[9] = system: prostate gland; settings: oral, U.S. Pat. No. 4,186,211; cited from earlier work
[10] = system: Herpes simplex virus type 1; test: Inhibition of HSV type 1 infectivity in simian and human cell lines; format: cell-based, HSV-1
[11] = system: Varicella Zoster Virus; test: Antiviral activity against varicella zoster virus; format: cell-based; settings: Table 6, human viruses
[12] = system: viruses; settings: U.S. Pat. No. 4,874,794; cited from earlier work
[13] = system: poliovirus; format: cell-based; settings: nonenveloped virus
[14] = system: HSV-specific receptors; test: Binding of herpes virus to HSV-specific receptors on target cells; format: cell-based
Text: as §1

[15] = system: Vero cells; remark: listed apart in the source
[16] = system: Friend virus; test: Friend virus-induced leukemia and viremia in mice; format: in vivo, BALB/c mice; settings: intravenous
[17] = system: recurrent herpes genitalis; test: Study B: trial in female patients with recurrent herpes genitalis; format: in vivo, human; settings: all patients
Text: (§2) Two clinical efficacy studies have been completed. Study A was a randomized, double-blind, placebo-controlled Phase 2 study in 63 patients (male and female) with recurrent herpes labialis. All of the 31 n-docosanol 10% cream-treated patients in the herpes labialis study, Study A, completed their treatment; 2 of those 31 patients reported a burning or stinging sensation after application of the cream. […] Study B was a randomized, double-blind, placebo-controlled trial in 44 female patients with recurrent herpes genitalis.
In the first clinical study, sixty female patients with recurrent herpes genitalis entered the study while symptom-free and not in a prodromal stage. […]
Three pain analyses were conducted, based on patients' self-assessment of pain: time to sustained "no pain"; time to first "no pain"; and time to first reduction of pain. Time to sustained "no pain" was measured from the time of first pain at application to the time when 1 ) pain was scored as "no pain" for a minimum of 2 consecutive recordings; and 2) during the remainder of the episode, additional pain recordings were no more frequent and severe than 2 separated episodes of 2 consecutive recordings of "mild" pain. […] Time to first reduction in pain was measured from the time of first pain at application to the first time when a decrease in pain level was noted, relative to the previous assessment. […]

[18] = system: Human Herpesvirus-6; test: Antiviral activity against human herpesvirus-6; format: cell-based
[19] = system: HSV-2; format: cell-based
[20] = system: recurrent herpes labialis; test: Study A: Phase 2 study in recurrent herpes labialis; format: in vivo, human; settings: for time to healing, mean: 10% cream, all treatment episodes
Text: as §2
Sixty five patients (aged 18-60) took part in the Study A, 32 patients were initially randomized to receive 10% n-docosanol cream and 33 were initially randomized to receive placebo cream. Treatment was patient-initiated, and treatment initiation was defined as `early` if the treatment started at prodrome or erythema stage and as `late` if started at the papule stage or later. Two patients were excluded from the analysis. Of the 63 evaluable patients, 22 were entered into the cross-over phase of the study. In addition, 13 patients treated more than one episode with the same study medication. Therefore, a total of 98 herpes episodes--48 treated with 10% n-docosanol cream and 50 treated with placebo cream--were analyzed.

[21] = system: Cytomegalovirus; test: Antiviral activity against human cytomegalovirus; format: cell-based, human virus; settings: Table 6, human viruses
[22] = system: HSV; test: Secondary plaque assay of infectious virions; format: cell-based; settings: secondary plaque assay cultures
Text: Finally, the replication of infectious virions as measured in secondary plaque assay cultures is markedly diminished by 99% or more in n-docosanol-treated cells.

CCCCCCCCCCCCCCCCCCCCCCO [n-docosanol]
activity against reovirus [1]: no detectable activity | direct virucidal activity [2]: no direct virucidal activity | inhibition of acyclovir-resistant HSV-2 mutant [3]: very clearly susceptible | fraction of total n-docosanol cell-associated [4]: less than 1% | molecules per cell [4]: ~8×10^9 molecules per cell | radioactive compound in cell membranes [4]: 75% | radioactive compound in nuclear fractions [4]: less than 1% | reversibility of cell association [4]: irreversible | time of peak uptake per cell [4]: 6 to 12 h | total uptake, Tetronic versus Pluronic suspension [4]: equivalent | susceptibility to antiviral activity: Friend Leukemia Virus ([5]; Table 6, murine viruses): susceptible | activity against replication of Friend Virus in vitro ([5]; primary embryo fibroblast cultures): very potent activity | susceptibility to antiviral activity: Influenza A [6]: susceptible | susceptibility to antiviral activity: Herpes Simplex - 2 ([7]; Table 6): susceptible | inhibitory activity in vitro ([7]; suspension in Pluronic F-68): excellent inhibitory activity | susceptibility to antiviral activity: LP-BM5 Virus [8]: susceptible | treatment of enlargement of the prostate gland [9]: therapeutically effective | susceptibility to antiviral activity: Herpes Simplex - 1 ([10]; Table 6): susceptible | inhibitory activity in vitro ([10]; suspension in Pluronic F-68): excellent inhibitory activity | susceptibility to antiviral activity: Varicella Zoster Virus [11]: susceptible | antiviral properties [12]: favorable | activity against poliovirus [13]: no detectable activity | effect on viral binding to receptors [14]: does not interfere with binding of herpes virus; also recorded: no effect | counts migrating in the region of phosphatidylcholine [15]: approximately 62% | counts migrating in the region of phosphatidylethanolamine [15]: ~38% | levels of metabolic conversion, Tetronic relative to Pluronic [15]: 3 fold | metabolic conversion [15]: progressively metabolized to polar compounds | inhibition of development of leukemic foci ([16]; FIG. 12 Panel A): very clear dose-related inhibitory affect | inhibition of development of viremia ([16]; FIG. 12 Panel B): very clear dose-related inhibitory affect | average healing time based on patient ratings ([17]; 10% cream, placebo 4.5): 5.6 days | difference in mean time to healing versus placebo ([17]; p=0.2703): no statistically significant difference | inhibition of in vitro replication of human herpes virus 6 [18]: inhibits in vitro replication | susceptibility to antiviral activity: Human Herpesvirus-6 ([18]; Table 6, human viruses): susceptible | internalization of HSV complete by 20 minutes ([19]; after shift to 37° C.): less than 40% | time to completion of internalization ([19]; after shift to 37° C.): more than 1 hour | persistence of bound HSV virions on the cell surface ([19]; in the presence of n-docosanol): remain on the cell surface for a prolonged time period | time to healing, mean ([20]; all treatments): 5.7 days | time to healing, mean ([20]; early treatment): 3.4 days | reduction in mean overall healing time versus placebo ([20]; all 98 episodes, P=0.02): 1.6 days | reduction in mean healing time ([20]; all episodes, early treatment, P=0.05): 3.3 days | difference in healing time, late treatment ([20]; cross-over portion, P=0.03): significant difference in favor of n-docosanol | susceptibility to antiviral activity: Cytomegalovirus [21]: susceptible | decrease of replication of infectious virions [22]: ≥ 99%
